The values below come from patent publication US11834453B2, “Substituted pyrimido[5,4-d]pyrimidines as HER2 inhibitors” (Array BioPharma Inc., priority 2020, dated 2023).

Data set [1] deals with ErbB2 with Exon 20 YVMA insertion (HER2-YVMA) (Homo sapiens (Human), UniProt P04626, INS775YVMA). In words: Cellular phosphorylation assay, constitutive ErbB2 phosphorylation (Y1196) in engineered NIH 3T3 cells, Assay 4. The format is cell-based. In short, it runs like this:
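In-cell Western in NIH 3T3 cells carrying ErbB2 exon 20 YVMA insertion, with no ligand stimulation. One hour compound exposure at 37 °C before fixation and anti-pY1196 plus GAPDH staining with dual-wavelength fluorescence. IC50 derived after GAPDH normalization.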

Data set [2] addresses T1, EGFR wild type (EGFR WT) (Homo sapiens (Human), UniProt P00533). The experiment in a line: Cellular phosphorylation assay, EGF-stimulated EGFR phosphorylation (Y1068) in engineered NIH 3T3 cells, Odyssey imaging, Assay 5 (footnote 1). The format is cell-based. To be noted: values marked with footnote 1. As to the method: NIH 3T3 cells were engineered to express ErbB2 with Exon 20 YVMA insertion (HER2-YVMA (SEQ ID NO: 2); Assay 4) or EGFR wild type (EGFR WT; Assay 5, footnote 1) with constructs obtained from GenScript and grown in DMEM supplemented with 10% fetal bovine serum and 15 μg/ml blasticidin. Cells were plated in 96-well plates at 40,000 or 45,000 cells/well for HER2-YVMA (SEQ ID NO: 2) and EGFR WT assays, respectively, and allowed to attach overnight at 37° C./5% CO2. Serially diluted compounds were added to the plates for 1 hour at 37° C./5% CO2. EGFR WT cells were stimulated with 100 ng/ml rEGF for an additional 10 minutes at 37° C./5% CO2. After compound incubation, medium was removed from the cells, which were then fixed in 3.7% formaldehyde in PBS at room temperature for 20 minutes. Following a wash with PBS, cells were permeabilized with 100% methanol at room temperature for 10 minutes. Cells were then washed with PBS/0.05% Tween-20 and blocked with Odyssey blocking buffer (LI-COR Biosciences) for at least 1 hour at room temperature. Antibodies to phosphorylated ErbB2 (Y1196, Cell Signaling #6942) or phosphorylated EGFR (Y1068, Cell Signaling #3777) and GAPDH (Millipore #MAB374) were added to the cells in blocking buffer containing 0.05% azide and incubated overnight at 4° C. After washing with PBS/0.05° i° Tween-20, the cells were incubated with fluorescently labeled secondary anti-rabbit antibody (LiCOR, IRDye 800CW #926-32211) and anti-mouse antibody (Molecular Probes, Alexa Fluor 680 #A21058) for 1 hour at room temperature in the dark. Cells were then washed and analyzed for fluorescence at both wavelengths using the Odyssey Infrared Imaging System (LI-COR Biosciences). Phosphorylated ErbB2 and EGFR signal was normalized to GAPDH signal to generate curves and calculate IC50 values.

Data set [3] concerns the target ErbB2 insYVMA (HER2-YVMA, SEQ ID NO: 2) (Homo sapiens, UniProt P04626, INS775YVMA/P1170A). In words: biochemical. To be noted: ErbB2 insYVMA enzyme assay; read-out: Assay 1 IC50.
Data set [4] addresses T2, MDR1 (P-gp) (Homo sapiens (Human), UniProt P08183). In words: MDR1 transfected LLC-PK1 permeability/efflux, Assay 6. To be noted: pig, LLC-PK1, Assay 6 Pe Ratio, efflux ratio Papp(B-A)/Papp(A-B), MDR1 transfected LLC-PK1.
The target of data set [5] is T2, MDR1 (P-gp). The experiment in a line: MDR1 transfected MDCKII canine Mdr1 knockout permeability/efflux, Assay 7. To be noted: dog, MDCK-MDR1.
The next data set has as its target EGFR (Homo sapiens (Human), UniProt P00533). The experiment in a line: ErbB enzyme assay (CisBio HTRF KinEASE-TK), Assay 3. The format is biochemical. The essentials: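 HTRF dual-wavelength read after 1 h detection; POC normalised to DMSO (100) and pre-quenched (0) controls, IC50 where 4-parameter curve crosses 50 POC. Reaction: 250 nM TK-substrate biotin, 1 mM ATP, pH 7.4 HEPES buffer with MgCl2, 30 min, 22 °C.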

In another data set the target is ErbB2 WT (Homo sapiens (Human), UniProt P04626). In words: ErbB enzyme assay (CisBio HTRF KinEASE-TK), Assay 2. It counts as biochemical. In short, it runs like this: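 Readout is HTRF KinEASE-TK, using Sa-XL665 and cryptate antibody for 1 h at 22 °C, as percent of control between DMSO-only (100) and pre-quenched (0) reactions. The kinase reaction runs 30 min at 22 °C with 1 mM ATP and 250 nM biotinylated TK substrate, in HEPES pH 7.4 with MgCl2 and 2% DMSO.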

The target in data set [6] is T1, EGFR wild type (EGFR WT). In words: Cellular phosphorylation assay, EGF-stimulated EGFR phosphorylation in engineered NIH 3T3 cells, Phospho-EGFR DuoSet IC ELISA, Assay 5. The format is cell-based. In short, it runs like this:
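Phospho-EGFR ELISA on lysates of engineered NIH 3T3 EGFR WT cells, IC50 derived from concentration curves. Cells plated at 20,000/well overnight, given compound dilutions 1 h at 37 °C, then rEGF 100 ng/ml for a further 10 min before lysis.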

The next data set deals with BCRP (Homo sapiens (Human), UniProt Q9UNQ0). The experiment in a line: BCRP transfected MDCKII canine Mdr1 knockout permeability/efflux, Assay 9. As to conditions: dog, Assay 9 Pe Ratio, efflux ratio Papp(B-A)/Papp(A-B), BCRP transfected MDCKII canine Mdr1 knockout.
Sequence of BCRP (Q9UNQ0 whole entry): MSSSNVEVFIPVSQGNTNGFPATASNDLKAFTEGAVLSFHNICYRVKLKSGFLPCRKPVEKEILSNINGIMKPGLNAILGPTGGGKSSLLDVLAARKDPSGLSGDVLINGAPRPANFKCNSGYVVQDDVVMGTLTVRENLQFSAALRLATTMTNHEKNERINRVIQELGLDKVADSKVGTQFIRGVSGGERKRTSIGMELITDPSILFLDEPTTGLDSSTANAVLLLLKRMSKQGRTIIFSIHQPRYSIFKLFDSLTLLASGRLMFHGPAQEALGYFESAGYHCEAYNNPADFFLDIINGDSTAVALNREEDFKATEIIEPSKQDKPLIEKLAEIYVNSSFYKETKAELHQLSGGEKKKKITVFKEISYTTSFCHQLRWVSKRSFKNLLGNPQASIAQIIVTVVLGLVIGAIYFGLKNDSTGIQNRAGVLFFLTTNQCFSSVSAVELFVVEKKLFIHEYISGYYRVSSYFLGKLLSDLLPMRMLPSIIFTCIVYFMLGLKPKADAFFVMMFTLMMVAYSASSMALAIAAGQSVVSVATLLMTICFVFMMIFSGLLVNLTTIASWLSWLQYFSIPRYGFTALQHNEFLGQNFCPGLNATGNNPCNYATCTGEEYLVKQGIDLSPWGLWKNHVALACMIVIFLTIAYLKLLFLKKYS

Sequence of ErbB2 WT (P04626 23-1255): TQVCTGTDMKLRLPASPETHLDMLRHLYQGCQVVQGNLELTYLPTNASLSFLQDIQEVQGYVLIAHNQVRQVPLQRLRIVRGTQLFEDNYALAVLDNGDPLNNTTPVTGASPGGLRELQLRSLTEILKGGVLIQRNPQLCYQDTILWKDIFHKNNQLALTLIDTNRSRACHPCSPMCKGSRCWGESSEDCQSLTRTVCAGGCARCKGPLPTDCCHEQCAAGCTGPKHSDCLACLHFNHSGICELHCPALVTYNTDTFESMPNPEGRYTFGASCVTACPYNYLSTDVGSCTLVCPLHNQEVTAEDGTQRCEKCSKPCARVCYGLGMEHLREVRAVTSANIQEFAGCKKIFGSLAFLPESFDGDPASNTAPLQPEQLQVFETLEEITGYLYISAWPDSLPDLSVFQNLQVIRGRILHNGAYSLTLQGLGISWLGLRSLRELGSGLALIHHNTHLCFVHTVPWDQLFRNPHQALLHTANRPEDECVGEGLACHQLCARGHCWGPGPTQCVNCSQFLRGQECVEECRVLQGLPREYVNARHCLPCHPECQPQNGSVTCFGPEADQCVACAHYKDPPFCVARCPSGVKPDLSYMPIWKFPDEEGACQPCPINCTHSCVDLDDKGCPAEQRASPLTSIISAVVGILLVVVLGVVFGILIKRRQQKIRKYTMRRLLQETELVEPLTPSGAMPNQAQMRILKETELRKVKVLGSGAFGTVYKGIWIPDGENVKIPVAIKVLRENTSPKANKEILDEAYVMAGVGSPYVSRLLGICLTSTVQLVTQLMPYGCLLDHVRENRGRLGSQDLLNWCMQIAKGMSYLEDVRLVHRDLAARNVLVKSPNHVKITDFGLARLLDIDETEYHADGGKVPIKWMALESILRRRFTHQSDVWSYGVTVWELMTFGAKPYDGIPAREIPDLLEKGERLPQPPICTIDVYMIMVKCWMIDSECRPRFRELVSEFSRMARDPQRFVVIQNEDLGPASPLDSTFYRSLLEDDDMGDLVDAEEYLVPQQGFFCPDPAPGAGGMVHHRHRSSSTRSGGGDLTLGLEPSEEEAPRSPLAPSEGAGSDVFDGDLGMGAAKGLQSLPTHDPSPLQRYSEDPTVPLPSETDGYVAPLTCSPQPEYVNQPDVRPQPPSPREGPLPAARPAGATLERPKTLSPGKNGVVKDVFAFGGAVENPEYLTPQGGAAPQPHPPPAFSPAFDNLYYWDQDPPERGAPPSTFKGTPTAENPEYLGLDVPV
T2 sequence (P08183 whole entry): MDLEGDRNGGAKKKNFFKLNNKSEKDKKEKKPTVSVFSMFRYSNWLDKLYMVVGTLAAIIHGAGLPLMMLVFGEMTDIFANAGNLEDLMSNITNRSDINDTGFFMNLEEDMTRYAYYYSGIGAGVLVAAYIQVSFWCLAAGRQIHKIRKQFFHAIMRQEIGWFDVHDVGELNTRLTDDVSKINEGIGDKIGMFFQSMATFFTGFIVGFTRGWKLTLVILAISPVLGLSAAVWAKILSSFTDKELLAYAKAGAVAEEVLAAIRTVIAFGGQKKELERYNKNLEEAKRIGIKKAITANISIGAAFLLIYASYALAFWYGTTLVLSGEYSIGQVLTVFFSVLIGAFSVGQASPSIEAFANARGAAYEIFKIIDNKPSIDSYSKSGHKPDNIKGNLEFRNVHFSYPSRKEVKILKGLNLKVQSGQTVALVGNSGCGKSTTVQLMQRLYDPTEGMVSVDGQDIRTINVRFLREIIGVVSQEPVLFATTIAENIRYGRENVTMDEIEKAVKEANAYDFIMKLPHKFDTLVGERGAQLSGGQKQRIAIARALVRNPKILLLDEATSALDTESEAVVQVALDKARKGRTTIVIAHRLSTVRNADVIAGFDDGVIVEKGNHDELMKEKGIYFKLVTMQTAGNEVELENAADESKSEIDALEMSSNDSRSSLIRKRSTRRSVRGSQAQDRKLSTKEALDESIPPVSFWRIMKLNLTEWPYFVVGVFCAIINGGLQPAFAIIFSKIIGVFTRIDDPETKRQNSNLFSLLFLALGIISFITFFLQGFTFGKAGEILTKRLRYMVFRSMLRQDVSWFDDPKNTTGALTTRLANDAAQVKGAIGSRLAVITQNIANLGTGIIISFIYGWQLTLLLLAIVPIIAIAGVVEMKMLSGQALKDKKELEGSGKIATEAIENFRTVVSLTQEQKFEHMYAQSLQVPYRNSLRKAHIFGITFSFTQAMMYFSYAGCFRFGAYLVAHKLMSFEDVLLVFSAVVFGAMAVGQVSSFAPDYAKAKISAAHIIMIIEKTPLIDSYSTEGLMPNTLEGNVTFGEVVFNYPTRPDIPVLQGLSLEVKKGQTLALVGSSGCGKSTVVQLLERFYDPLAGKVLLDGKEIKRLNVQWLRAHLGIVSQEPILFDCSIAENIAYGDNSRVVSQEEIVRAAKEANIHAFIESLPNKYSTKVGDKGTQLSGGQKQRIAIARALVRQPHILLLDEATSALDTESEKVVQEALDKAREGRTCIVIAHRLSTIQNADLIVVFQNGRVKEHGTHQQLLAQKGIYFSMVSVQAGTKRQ
Sequence of ErbB2 insYVMA (HER2-YVMA, SEQ ID NO: 2) (P04626 with tags, fused parts or gaps INS775YVMA/P1170A limits assumed): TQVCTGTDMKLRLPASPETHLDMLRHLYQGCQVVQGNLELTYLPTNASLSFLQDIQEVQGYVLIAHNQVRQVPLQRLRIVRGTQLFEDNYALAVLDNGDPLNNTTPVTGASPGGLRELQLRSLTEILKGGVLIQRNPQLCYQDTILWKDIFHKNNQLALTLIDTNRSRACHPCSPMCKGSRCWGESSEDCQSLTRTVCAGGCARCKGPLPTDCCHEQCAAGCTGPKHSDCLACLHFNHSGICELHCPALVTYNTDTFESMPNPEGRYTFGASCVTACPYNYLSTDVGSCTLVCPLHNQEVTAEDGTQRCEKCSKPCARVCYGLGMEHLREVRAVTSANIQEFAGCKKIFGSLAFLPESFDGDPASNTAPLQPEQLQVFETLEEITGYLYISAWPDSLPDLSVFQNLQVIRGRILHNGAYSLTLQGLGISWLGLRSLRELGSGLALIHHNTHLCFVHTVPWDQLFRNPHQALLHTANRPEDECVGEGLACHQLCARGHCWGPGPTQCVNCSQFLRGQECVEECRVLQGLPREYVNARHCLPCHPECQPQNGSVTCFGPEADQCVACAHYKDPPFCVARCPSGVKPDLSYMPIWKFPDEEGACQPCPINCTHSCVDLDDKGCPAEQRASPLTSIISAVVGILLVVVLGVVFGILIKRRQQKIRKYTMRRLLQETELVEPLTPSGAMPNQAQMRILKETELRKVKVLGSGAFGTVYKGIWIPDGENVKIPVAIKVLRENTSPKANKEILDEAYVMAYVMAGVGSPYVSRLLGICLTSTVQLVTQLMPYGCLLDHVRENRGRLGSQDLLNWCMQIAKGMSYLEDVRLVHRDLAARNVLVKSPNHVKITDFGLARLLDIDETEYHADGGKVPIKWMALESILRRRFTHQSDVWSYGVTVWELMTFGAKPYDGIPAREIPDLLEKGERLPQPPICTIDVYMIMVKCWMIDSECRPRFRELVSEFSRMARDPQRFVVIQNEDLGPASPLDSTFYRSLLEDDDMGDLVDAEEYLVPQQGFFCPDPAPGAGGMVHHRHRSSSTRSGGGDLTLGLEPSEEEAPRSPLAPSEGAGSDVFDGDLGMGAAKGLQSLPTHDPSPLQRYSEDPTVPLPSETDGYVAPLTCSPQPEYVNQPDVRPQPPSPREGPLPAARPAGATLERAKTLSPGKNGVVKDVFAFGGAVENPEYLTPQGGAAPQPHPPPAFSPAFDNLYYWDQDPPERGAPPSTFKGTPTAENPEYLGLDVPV

Regarding `CSc1ncc2ncnc(Nc3ccc(Oc4ccc5c(c4)ncn5C)c(C)c3)c2n1` [Example 1, N-(3-methyl-4-((1-methyl-1H-benzo[d]imidazol-5-yl)oxy)phenyl)-6-(methylthio)pyrimido[5,4-d]pyrimidin-4-amine], the IC50 is 29.2 nM in [1]; 5000 nM against EGFR wild type (EGFR WT) [2]; 19.3 nM in data set [3]; no less than 10000 nM at EGFR; 41.1 nM against ErbB2 WT. Moreover, the efflux ratio at 2 h, 1 μM was 1.2 on MDR1 (P-gp) [4] and 1.4 at MDR1 (P-gp) [5].

As to `Cc1cc(Nc2ncnc3cnc(S(C)(=O)=O)nc23)ccc1Oc1ccc2c(c1)ncn2C` [Example 2, N-(3-methyl-4-((1-methyl-1H-benzo[d]imidazol-5-yl)oxy)phenyl)-6-(methylsulfonyl)pyrimido[5,4-d]pyrimidin-4-amine], the IC50 in data set [1] turned out to be 4750 nM; against EGFR wild type (EGFR WT) [2], 5000 nM; in data set [3], 7.9 nM; against EGFR, 4640 nM; against ErbB2 WT, 14.9 nM.

Regarding `Cc1cc(Nc2ncnc3cnc(S(C)(=O)=O)nc23)ccc1Oc1ccc2c(C)onc2c1` [Example 5, N-(3-methyl-4-((3-methylbenzo[c]isoxazol-6-yl)oxy)phenyl)-6-(methylsulfonyl)pyrimido[5,4-d]pyrimidin-4-amine], the IC50 in data set [1] was found to be 4450 nM; at EGFR wild type (EGFR WT) [2], 5000 nM; in data set [3], 9.8 nM; on EGFR, 4150 nM; against ErbB2 WT, 10.9 nM.

Take `COc1ncc2ncnc(Nc3ccc(Oc4ccc5c(C)onc5c4)c(C)c3)c2n1` [Example 6, 6-methoxy-N-(3-methyl-4-((3-methylbenzo[c]isoxazol-6-yl)oxy)phenyl)pyrimido[5,4-d]pyrimidin-4-amine]: the IC50 was 1450 nM in [1]; 5000 nM against EGFR wild type (EGFR WT) [2]; 24.6 nM in [3]; no less than 10000 nM against EGFR; 232 nM against ErbB2 WT.

Turning to `CSc1ncc2ncnc(Nc3ccc(Oc4ccc5conc5c4)c(C)c3)c2n1` [Example 10, N-(4-(benzo[c]isoxazol-6-yloxy)-3-methylphenyl)-6-(methylthio)pyrimido[5,4-d]pyrimidin-4-amine], the IC50 in data set [1] is 671 nM; at EGFR wild type (EGFR WT) [2], 5000 nM; in [3], 49 nM; on EGFR it was no less than 10000 nM; against ErbB2 WT it was 144 nM.

As to `CSc1ncc2ncnc(Nc3ccc(Oc4ccc5c(C)onc5c4)c(C)c3)c2n1` [Example 12, N-(3-methyl-4-((3-methylbenzo[c]isoxazol-6-yl)oxy)phenyl)-6-(methylthio)pyrimido[5,4-d]pyrimidin-4-amine], the concentration for half-maximal inhibition (IC50) in data set [1] was 403 nM; at EGFR wild type (EGFR WT) [2] it was 5000 nM; in data set [3], 64.2 nM; against EGFR it was no less than 10000 nM; on ErbB2 WT, 275 nM.

For the compound `Cc1cc(Nc2ncnc3cnc(N4CC[C@@](C)(O)C4)nc23)c(F)cc1Oc1ccc2c(c1)ncn2C` [Example 214, (R)-1-(8-((2-fluoro-5-methyl-4-((1-methyl-1H-benzo[d]imidazol-5-yl)oxy)phenyl)amino)pyrimido[5,4-d]pyrimidin-2-yl)-3-methylpyrrolidin-3-ol], the IC50 in data set [1] was 28.1 nM; in data set [3], 15.4 nM; against EGFR wild type (EGFR WT) [6], no less than 5000 nM; against EGFR it was no less than 10000 nM; against ErbB2 WT, 46.6 nM. The values for the efflux ratio at 2 h, 1 μM on MDR1 (P-gp) [5] and at BCRP were 1.5 and 8.8, respectively.

Turning to `Cc1cc(Nc2ncnc3cnc(N4CCC[C@@](C)(O)C4)nc23)c(F)cc1Oc1ccc2c(c1)ncn2C` [Example 218, (R)-1-(8-((2-fluoro-5-methyl-4-((1-methyl-1H-benzo[d]imidazol-5-yl)oxy)phenyl)amino)pyrimido[5,4-d]pyrimidin-2-yl)-3-methylpiperidin-3-ol], the half-inhibitory concentration (IC50) is 43.8 nM in data set [1]; 41.6 nM in data set [3]; no less than 5000 nM against EGFR wild type (EGFR WT) [6]; no less than 10000 nM at EGFR; 40.3 nM against ErbB2 WT. Further, the efflux ratio at 2 h, 1 μM at MDR1 (P-gp) [5] was 1.5; at BCRP, 2.4.

As for `Cc1cc(Nc2ncnc3cnc(N4CCO[C@H](C)C4)nc23)ccc1Oc1ccc2c(c1)ncn2C` [Example 265], the IC50 in data set [1] was 16.8 nM; in data set [3], 46.5 nM; against EGFR wild type (EGFR WT) [6] it was no less than 5000 nM; against EGFR, 5350 nM; at ErbB2 WT, 45.6 nM. Further, the efflux ratio at 2 h, 1 μM on MDR1 (P-gp) [5] was 1.1; at BCRP, 1.8.

Turning to `Cc1cc(Nc2ncnc3cnc(N4CCC(F)(F)C4)nc23)ccc1Oc1ccc2c(c1)ncn2C` [Example 299], the IC50 in data set [1] was 30.5 nM; in data set [3], 49.8 nM; against EGFR wild type (EGFR WT) [6], no less than 5000 nM; against EGFR, no less than 10000 nM; against ErbB2 WT it was 146 nM. In addition, the efflux ratio at 2 h, 1 μM came out at 0.4 at MDR1 (P-gp) [5] and 1.2 at BCRP.

`Cc1c(Oc2ccn3ncnc3c2)ccc(Nc2ncnc3cnc(N4CCC(C)(O)CC4)nc23)c1F` [Example 304]: the IC50 in [1] was 114 nM; in data set [3], 11.7 nM; at EGFR wild type (EGFR WT) [6], no less than 5000 nM; on EGFR it was 2840 nM; against ErbB2 WT, 48.6 nM. Further, the efflux ratio at 2 h, 1 μM at MDR1 (P-gp) [5] turned out to be 1.2; at BCRP it was 7.3.

Turning to `Cc1cc(Nc2ncnc3cnc(N4C[C@@H]5COC[C@@H]54)nc23)ccc1Oc1ccc2c(c1)ncn2C` [Example 348], the concentration for half-maximal inhibition (IC50) in data set [1] is 14.5 nM; in data set [3], 40.1 nM; against EGFR wild type (EGFR WT) [6], no less than 5000 nM; against EGFR it was no less than 10000 nM; at ErbB2 WT it was 69.1 nM. Further, the efflux ratio at 2 h, 1 μM is 1.4 at MDR1 (P-gp) [5] and 5 on BCRP.

Turning to `Cn1cnc2cc(Oc3ccc(Nc4ncnc5cnc(N6CC[C@H](CC#N)C6)nc45)cc3Cl)ccc21` [Example 358], the IC50 in data set [1] is 19.2 nM; in [3] it was 53.2 nM; against EGFR wild type (EGFR WT) [6], no less than 5000 nM; at EGFR, no less than 10000 nM; on ErbB2 WT, 35.8 nM. In addition, the efflux ratio at 2 h, 1 μM on MDR1 (P-gp) [5] worked out at 1.6; at BCRP, 8.9.

In the case of `Cc1cc(Nc2ncnc3cnc(N(C)CC4COC4)nc23)ccc1Oc1ccc2c(c1)ncn2C` [Example 402], the IC50 is 14.9 nM in [1]; 39.7 nM in [3]; no less than 5000 nM against EGFR wild type (EGFR WT) [6]; no less than 10000 nM against EGFR; 14.9 nM against ErbB2 WT. Besides, the values for the efflux ratio at 2 h, 1 μM at MDR1 (P-gp) [5] and on BCRP were 1.4 and 2.3, respectively.
